Consider 17 compounds from patent publication US10077241B2 (Janssen Pharmaceutica NV, priority 2014, dated 2018).

Structures can show the parent of a compound that is named as a salt.

One assay concerns the target T1, TGR5 (STC1 cell line) (Mus musculus, UniProt Q80SS6).
T1 sequence (Q80SS6 1-329): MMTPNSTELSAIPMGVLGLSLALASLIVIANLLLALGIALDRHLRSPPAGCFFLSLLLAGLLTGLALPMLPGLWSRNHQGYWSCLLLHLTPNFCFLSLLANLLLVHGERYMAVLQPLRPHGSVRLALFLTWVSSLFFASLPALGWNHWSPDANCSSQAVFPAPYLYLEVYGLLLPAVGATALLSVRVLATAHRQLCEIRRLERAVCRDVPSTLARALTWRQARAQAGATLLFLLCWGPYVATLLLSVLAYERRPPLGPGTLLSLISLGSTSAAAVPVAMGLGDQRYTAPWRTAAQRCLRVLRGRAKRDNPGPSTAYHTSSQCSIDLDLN
Nature of the assay: STC1 cAMP Agonist EC50 Determination.

In assay [1] the target is T2, TGR5 (NCI-H716 cell line) (Homo sapiens, UniProt Q8TDU6).
T2 sequence (Q8TDU6 1-330): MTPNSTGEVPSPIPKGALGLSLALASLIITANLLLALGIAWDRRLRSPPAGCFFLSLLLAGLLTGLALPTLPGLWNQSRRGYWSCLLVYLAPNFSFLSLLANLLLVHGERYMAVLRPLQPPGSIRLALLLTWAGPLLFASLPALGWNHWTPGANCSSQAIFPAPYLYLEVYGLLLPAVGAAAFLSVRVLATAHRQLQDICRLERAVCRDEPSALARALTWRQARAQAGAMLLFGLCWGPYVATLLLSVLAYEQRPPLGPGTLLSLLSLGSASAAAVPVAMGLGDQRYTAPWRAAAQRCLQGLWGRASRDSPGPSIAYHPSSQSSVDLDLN
Kind of assay: NCI-H716 cAMP Agonist EC50 Determination.
Protocol: Cells were cultured in suspension using RPM containing: 10% HI FBS, and 1× Penn/Strep and were cryostored (1E7 cells/vial in 5% DMSO).
A Normalized signal (NS) is generated by the Envision for each well ((Read 1/Read 2)×10,000).
The data from the Envision were imported to an Excel worksheet. nM cAMP is calculated for each well from the cAMP standard curves located on each plate by first calculating the slope and deriving the intercept (b).
[formula] [formula] [formula] EC50 values were determined from a 4-point fit (Hill equation) of a single 11-point compound dosing.

On to `COc1cc(C2CCCc3nc(SCc4c(F)cc(S(=O)(=O)NS(C)(=O)=O)cc4F)n(-c4ccc(F)cc4)c32)ccc1Cl` (stereo not shown) [Example 21b, 4-((7-(4-chloro-3-methoxyphenyl)-1-(4-fluorophenyl)-4,5,6,7-tetrahydro-1H-benzo[d]imidazol-2-ylthio)methyl)-3,5-difluoro-N-(methylsulfonyl)benzenesulfonamide], for which the EC50 is 8120 nM at TGR5 (STC1 cell line) and > 50 µM in assay [1].
The corresponding values for `COc1cccc(C2CCCc3nc(SCc4c(F)cncc4F)n(-c4ccc(F)c(OC)c4)c32)c1` (stereo not shown) [Example 72, 2-(((3,5-difluoropyridin-4-yl)methyl)thio)-1-(4-fluoro-3-methoxyphen)-7-(3-methoxyphenyl)-4,5,6,7-tetrahydro-1H-benzo[d]imidazole] are 910 nM and 35.2 µM.
In the same order, the values of `COc1cc(C2(C)CCCc3nc(SCc4c(F)cc(C(=O)N5CCOCC5)cc4F)n(-c4ccc(F)cc4)c32)ccc1F` (stereo not shown) [Example 122, (3,5-difluoro-4-(((7-(4-fluoro-3-methoxyphenyl)-1-(4-fluorophenyl)-7-methyl-4,5,6,7-tetrahydro-1H-benzo[d]imidazol-2-yl)thio)methyl)phenyl) (morpholino)methanone] are 90 nM and 18.8 µM.
In the same order, the values of `COc1cc(C2CCCc3nc(SCc4c(Cl)cncc4Cl)n(-c4ccc(F)cc4)c32)ccc1Cl` (stereo not shown) [Example 54] are 4410 nM and > 50 µM.
On to `COc1ccc(C2(C)CCCc3nc(SCc4c(F)cc(OCCCl)cc4F)n(-c4ccc(F)cc4)c32)cc1OC` (stereo not shown) [Example 107, 2-((4-(2-chloroethoxy)-2,6-difluorobenzyl)thio)-7-(3,4-dimethoxyphenyl)-1-(4-fluorophenyl)-7-methyl-4,5,6,7-tetrahydro-1H-benzo[d]imidazole], for which the EC50 came to 320 nM at TGR5 (STC1 cell line) and 1.4 µM in assay [1].
In the same order, the values of `COc1cc(C2CCCc3nc(SCc4c(F)cc(S(N)(=O)=O)cc4F)n(-c4ccc(F)cc4)c32)ccc1Cl` (stereo not shown) [Example 21a, 4-((7-(4-chloro-3-methoxyphenyl)-1-(4-fluorophenyl)-4,5,6,7-tetrahydro-1H-benzo[d]imidazol-2-ylthio)methyl)-3,5-difluorobenzenesulfonamide] are 690 nM and 48.4 µM.
The corresponding values for `COc1cc(C2CCCc3nc(SCc4c(F)cc(CCCO)cc4F)n(-c4ccc(F)cc4)c32)ccc1Cl` (stereo not shown) [Example 41, 3-(4-((7-(4-chloro-3-methoxyphenyl)-1-(4-fluorophenyl)-4,5,6,7-tetrahydro-1H-benzo[d]imidazol-2-ylthio)methyl)-3,5-difluorophenyl)propan-1-ol trifluoroacetic acid] are 890 nM and > 50 µM.
`COc1cc(C2(C)CCCc3nc(SCc4ncncc4Cl)n(-c4ccc(F)cc4)c32)ccc1Cl` (stereo not shown) [Example 86, 7-(4-chloro-3-methoxyphenyl)-2-((5-chloropyrimidin-4-yl)methylthio)-1-(4-fluorophenyl)-7-methyl-4,5,6,7-tetrahydro-1H-benzo[d]imidazole trifluoroacetic acid]: the EC50 on TGR5 (STC1 cell line) turned out to be 2220 nM; in assay [1], 27.1 µM.
The corresponding values for `COc1cc(C2(C)CCCc3nc(SCc4c(F)cncc4F)n(-c4ccc(F)cc4)c32)ccc1Cl` (stereo not shown) [Example 98, 2-((3,5-difluoropyridin-4-yl)methylthio)-7-(4-chloro-3-methoxyphenyl)-1-(4-fluorophenyl)-4,5,6,7-tetrahydro-7-methyl-1H-benzo[d]imidazole trifluoroacetic acid] are 160 nM and 24.3 µM.
The corresponding values for `COc1cc(C2CCCc3nc(SCc4ccncc4F)n(-c4ccc(F)cc4)c32)ccc1Cl` (stereo not shown) [Example 51, 2-((3-fluoropyridin-4-yl)methylthio)-7-(4-chloro-3-methoxyphenyl)-1-(4-fluorophenyl)-4,5,6,7-tetrahydro-1H-benzo[d]imidazole trifluoroacetic acid] are 5500 nM and > 50 µM.
The corresponding values for `COc1ccc(C2(C)CCCc3nc(SCc4c(F)cc(Br)cc4F)n(-c4ccc(F)cc4)c32)cc1OC` (stereo not shown) [Example 109, 2-((4-bromo-2,6-difluorobenzyl)thio)-7-(3,4-dimethoxyphenyl)-1-(4-fluorophenyl)-7-methyl-4,5,6,7-tetrahydro-1H-benzo[d]imidazole] are 200 nM and 3.6 µM.
Take `COCCOCCOCCOCCNC(=O)c1cc(F)c(CSc2nc3c(n2-c2ccc(F)cc2)C(c2ccc(OC)c(OC)c2)CCC3)c(F)c1` (stereo not shown) [Example 66, 4-(((7-(3,4-dimethoxyphenyl)-1-(4-fluorophenyl)-4,5,6,7-tetrahydro-1H-benzo[d]imidazol-2-yl)thio)methyl)-3,5-difluoro-N-(2,5,8,11-tetraoxatridecan-13-yl)benzamide]: the EC50 was found to be 900 nM at TGR5 (STC1 cell line) and 2.4 µM in assay [1].
In the same order, the values of `COc1cc(C2CCCc3nc(SCc4c(F)cc(OCCN(C)C)cc4F)n(-c4ccc(F)cc4)c32)ccc1Cl` (stereo not shown) [Example 24, 2-(4-((7-(4-chloro-3-methoxyphenyl)-1-(4-fluorophenyl)-4,5,6,7-tetrahydro-1H-benzo[d]imidazol-2-ylthio)methyl)-3,5-difluorophenoxy)-N,N-dimethylethanamine Trifluoromethylacetic acid salt] are 3920 nM and > 50 µM.
Regarding `COc1cc(C2CCCc3nc(SCc4c(F)ccc(OCCOCCN(C)C)c4F)n(-c4ccc(F)cc4)c32)ccc1Cl` (stereo not shown) [Example 35, (2-[2-[3-([[7-(4-chloro-3-methoxyphenyl)-1-(4-fluorophenyl)-4,5,6,7-tetrahydro-1H-1,3-benzodiazol-2-yl]sulfanyl]methyl)-2,4-difluorophenoxy]ethoxy]ethyl)dimethylamine hydrochloride], the results for the EC50 (at TGR5 (STC1 cell line); in assay [1]) were 3150 nM and 9.3 µM, respectively.
In the same order, the values of `COc1cc(C2CCCc3nc(SCc4c(F)cc(C#N)cc4F)n(-c4ccc(F)cc4)c32)ccc1F` (stereo not shown) [Example 73, 3,5-difluoro-4-(((7-(4-fluoro-3-methoxyphenyl)-1-(4-fluorophenyl)-4,5,6,7-tetrahydro-1H-benzo[d]imidazol-2-yl)thio)methyl)benzonitrile] are 1530 nM and 47.5 µM.
In the same order, the values of `COc1cc(C2CCCc3nc(SCc4c(F)cc(C(=O)O)cc4F)n(-c4ccc(F)cc4)c32)ccc1Cl` (stereo not shown) [Example 12, 4-((7-(4-chloro-3-methoxyphenyl)-1-(4-fluorophenyl)-4,5,6,7-tetrahydro-1H-benzo[d]imidazol-2-ylthio)methyl)-3,5-difluorobenzoic acid trifluoroacetic acid] are 19700 nM and > 50 µM.
In the same order, the values of `COc1cc(C2(C=O)CCCc3nc(SCc4c(F)cccc4Cl)n(-c4ccc(F)cc4)c32)ccc1Cl` (stereo not shown) [Example 130, 4-(4-chloro-3-methoxyphenyl)-2-(2-chloro-6-fluorobenzylthio)-3-(4-fluorophenyl)-4,5,6,7-tetrahydro-3H-benzo[d]imidazole-4-carbaldehyde trifluoroacetic acid] are 14100 nM and > 50 µM.

By EC50 is commonly meant the concentration that produces a half-maximal response. Read a high EC50 as a need for much substance.
